Test results reported in patent US10945978B2, “Treatment and diagnosis of melanoma” (The Rockefeller University, priority 2012, dated 2021).
Where a name gives a salt, the structure may show the parent alone.

Assays:
[1] = system: MeWo, MeWo-LM2, HT-144, SK-Mel-2 and SK-Mel-334.2 human melanoma cells; test: Trans-well matrigel cell invasion assay, melanoma cells; format: cell-based; conditions: for ability of melanoma cells to invade through matrigel: MeWo, HT-144, SK-Mel-2, SK-Mel-334.2, 1 μM for 72 hours
Method: Cancer cells were serum-starved in 0.2% FBS DMEM-based media for 12 hours. Trans-well invasion chambers (354480, BD Biosciences, Bedford, Mass.) were pre-equilibrated prior to beginning the assay by adding 0.5 mL of starvation media to the top and bottom chambers. After 30 minutes, the media in the top chamber was removed, and 0.5 mL of media containing 1×10^5 cancer cells was added into each matrigel-coated trans-well insert and incubated at 37° C. for 24 hours. For neutralization antibody and/or recombinant protein experiments, antibody/recombinant protein was added to each well at the start of the assay at the following concentrations as indicated in the figures: 5-40 μg/mL anti-ApoE 1D7 (Heart Institute, University of Ottawa), 5-40 μg/mL anti-IgG (AB-108-C, R&D Systems, Minneapolis, Minn.), 100 μM recombinant human ApoE3 (4696, BioVision, Mountain View, Calif.), and 100 μM BSA (A2153, Sigma-Aldrich). Upon completion of the assay, matrigel-coated inserts were washed with PBS, the cells at the top side of each insert were scraped off, and the inserts were fixed in 4% paraformaldehyde for 15 minutes. The inserts were then cut out and mounted onto slides using VectaShield mounting medium containing DAPI (H-1000, Vector Laboratories, Burlingame, Calif.). The basal side of each insert was imaged using an inverted fluorescence microscope (Zeiss Axiovert 40 CFL) at 5× magnification, taking three representative images for each insert. The number of invaded cells was quantified using ImageJ (NIH).
The cell invasion assay was performed as previously described in detail (Pencheva et al., 2012) using a trans-well matrigel invasion chamber system (354480, BD Biosciences). In brief, various melanoma cells were cultured in the presence of DMSO, GW3965, T0901317, or Bexarotene at 1 μM for 56 hours, after which melanoma cells were switched to starvation media (0.2% FBS) for 16 hours in the presence of each drug. Following starvation, cells were seeded into matrigel-coated trans-well inserts, and the invasion assay was allowed to proceed for 24 hours at 37° C. For ApoE antibody neutralization experiments, 40 μg/mL 1D7 anti-ApoE blocking antibody (Heart Institute, University of Ottawa, Ottawa, Canada) or 40 t g/mL anti-IgG control antibody (AB-108-C, R&D Systems, Minneapolis, Minn.) was added to each trans-well insert at the start of the assay.
The cells were then serum starved for 16 hours in 0.2% FBS media in the presence of each corresponding drug or DMSO. Following serum starvation, the cells were subjected to the trans-well invasion assay using a matrigel invasion chamber system (354480, BD Biosciences). Invasion chambers were pre-equilibrated prior to the assay by adding 0.5 mL of starvation media to the top and bottom wells. Meanwhile, cancer cells were trypsinized and viable cells were counted using trypan blue. Cancer cells were then resuspended at a concentration of 2×10^5 cells/1 mL starvation media, and 0.5 mL of cell suspension, containing 1×10^5 cells, was seeded into each trans-well. The invasion assay was allowed to proceed for 24 hours at 37° C. […] Following fixation, the inserts were washed in PBS, cut out, and mounted onto slides using VectaShield mounting medium containing DAPI nuclear stain (H-1000, Vector Laboratories). The basal side of each insert was imaged using an inverted fluorescence microscope (Zeiss Axiovert 40 CFL) at 5× magnification, and the number of DAPI-positive cells was quantified using ImageJ.

[2] = system: human umbilical vein endothelial cells (HUVEC's); test: Endothelial recruitment assay (HUVEC migration towards melanoma cells); format: cell-based; conditions: for ability of melanoma cells to recruit endothelial cells: MeWo, HT-144, SK-Mel-2, SK-Mel-334.2, 1 μM for 72 hours
Method: 5×10^4 cancer cells were seeded into 24-well plates approximately 24 hours prior to the start of the assay. HUVEC's were grown to 80% confluency and serum starved in EGM-2 media supplemented with 0.2% FBS for 16 hours. HUVEC's were then pulsed with Cell Tracker Red CMTPX dye (C34552, Invitrogen) for 45 minutes. Meanwhile, cancer cells were washed with PBS, 0.5 mL of 0.2% FBS EGM-2 media was added to each well, and a 3.0 μm HTS Fluoroblock insert (351151, BD Falcon, San Jose, Calif.) was placed into each well. 1×10^5 HUVEC's, resuspended in 0.5 mL of starvation media, were seeded into each trans-well insert, and the recruitment assay was allowed to proceed for 16-18 hours at 37° C. For neutralization antibody and/or recombinant protein experiments, antibody/protein was then added to each well at the appropriate concentration as indicated in the figures: 40 μg/mL anti-ApoE 1D7, 40 μg/mL anti-IgG, 100 μM rhApoE3, and 100 μM BSA. Upon completion of the assay, the inserts were processed and analyzed as described for the matrigel invasion assay above (See Matrigel Invasion Assay).
The endothelial recruitment assay was carried out as previously described (Pencheva et al., 2012; Png et al., 2012). Melanoma cells were treated with DMSO, GW3965, T0901317, or Bexarotene at 1 μM for 56 hours, after which 5×10^4 cells were seeded in a 24-well plate in the presence of each drug and allowed to attach for 16 hours prior to starting the assay. HUVEC cells were serum-starved overnight in EGM-2 media containing 0.2% FBS. The following day, 1×10^5 HUVEC cells were seeded into a 3.0 μm HTS Fluoroblock trans-well migration insert (351151, BD Falcon, San Jose, Calif.) fitted into each well containing cancer cells at the bottom. The HUVEC cells were allowed to migrate towards the cancer cells for 20 hours at 37° C., after which the inserts were processed as previously described (Pencheva et al., 2012). For ApoE antibody neutralization experiments, 40 μg/mL 1D7 anti-ApoE blocking antibody (Heart Institute, University of Ottawa, Ottawa, Canada) or 40 μg/mL anti-IgG control antibody (AB-108-C, R&D Systems, Minneapolis, Minn.) was added to each trans-well insert at the start of the assay.
Subsequently, 5×10^4 cancer cells were seeded into 24-well plates in the presence of each drug or DMSO and allowed to attach for 16 hours prior to starting the assay. Human umbilical vein endothelial cells (HUVEC cells) were serum-starved in 0.2% FBS-containing media overnight. The following day, 1×10^5 HUVEC cells were seeded into a 3.0 μm HTS Fluoroblock insert (351151, BD Falcon) fitted into each well containing the cancer cells at the bottom. The HUVEC cells were allowed to migrate towards the cancer cells for 20 hours, after which the inserts were washed in PBS, fixed in 4% PFA, labeled with DAPI, and mounted on slides. The basal side of each insert was imaged using an inverted fluorescence microscope (Zeiss Axiovert 40 CFL) at 5× magnification, and the number of DAPI-positive cells was quantified using ImageJ.

[3] = MeWo cells pre-treated 48 hours
[4] = metastatic LM2 cells, recombinant ApoE3 100 μM vs BSA

## O=C(O)Cc1cccc(OCCCN(Cc2cccc(C(F)(F)F)c2Cl)CC(c2ccccc2)c2ccccc2)c1 [GW3965 2, 3-[3-[N-(2-Chloro-3-trifluoromethylbenzyl)-(2,2-diphenylethyl)amino]propyloxy] phenylacetic acid hydrochloride]
[1]; [3]
  tumor cell invasion: decreased
[1]
  ability of melanoma cells to invade through matrigel: consistently suppressed
[2]; [3]
  endothelial recruitment: decreased
[2]
  ability of melanoma cells to recruit endothelial cells: consistently suppressed

## recombinant human ApoE: recombinant human ApoE3 (4696, BioVision)
[1]; [4]
  invasion: significantly suppressed
[2]; endothelial cells pre-incubated with ApoE3 100 μM for 24 hours, LM2 cells
  migration of endothelial cells towards highly metastatic cancer cells: significantly reduced
[2]; [4]
  endothelial recruitment: significantly suppressed

## O=S(=O)(c1ccccc1)N(CC(F)(F)F)c1ccc(C(O)(C(F)(F)F)C(F)(F)F)cc1 [T0901317 1]
[1]
  ability of melanoma cells to invade through matrigel: consistently suppressed
[2]
  ability of melanoma cells to recruit endothelial cells: consistently suppressed
